Test results reported in patent publication US8372878B2, “Aminoguanidines as melanocortin receptor ligands” (Anamar AB, priority 2006, dated 2013).

Key:
MC5 [1] = biological target: T1, MC5 (Homo sapiens, UniProt P33032); test: Stimulation of cAMP, MC5; type: cell-based
Method: (§1) Test 3. cAMP The stimulation of cAMP was carried out essentially as described by Schiöth et al, Br J Pharmacol 1998; 124; 75-82.

MC4 [2] = biological target: T2, MC4 (Homo sapiens, UniProt P32245); test: Stimulation of cAMP, MC4; type: cell-based
Method: as §1

MC3 [3] = biological target: T3, MC3 (Homo sapiens, UniProt P41968); test: Stimulation of cAMP, MC3; type: cell-based
Method: as §1

MC1 = MC1 (Homo sapiens, UniProt Q01726); test: Stimulation of cAMP, MC1; type: cell-based
Method: as §1

MC1-Receptor = MC1-Receptor (Mus musculus, UniProt Q01727); test: Affinity for the MC1-receptor, binding assay with I125-NDP-αMSH as ligand; conditions: read-out: Affinity for MC-receptors Ki MC1
Method: Test 1. Affinity for the MC1-Receptor
The binding assay was carried out essentially as described by Lunec et al, Melanoma Res 1992; 2; 5-12, using I^125-NDP-αMSH as ligand.

MC3 [4] = biological target: T3, MC3; test: Affinity for the MC3-receptors, binding assay with I125-NDP-αMSH as ligand; conditions: read-out: Affinity for MC-receptors Ki MC3
Method: (§2) Test 2. Affinity for the MC3-Receptors, the MC4-Receptors and the MC5-Receptors
(§3) The binding assays were carried out essentially as described by Szardenings et al, J Biol Chem 1997; 272; 27943-27948 and Schiöth et al, FEBS Lett 1997; 410; 223-228 using I^125-NDP-αMSH as ligand.

MC5 [5] = biological target: T1, MC5; test: Affinity for the MC5-receptors, binding assay with I125-NDP-αMSH as ligand; conditions: read-out: Affinity for MC-receptors Ki MC5
Method: as §2, §3

MC4 [6] = biological target: T2, MC4; test: Affinity for the MC4-receptors, binding assay with I125-NDP-αMSH as ligand; conditions: read-out: Affinity for MC-receptors Ki MC4
Method: as §2, §3

T2 sequence (P32245 whole entry): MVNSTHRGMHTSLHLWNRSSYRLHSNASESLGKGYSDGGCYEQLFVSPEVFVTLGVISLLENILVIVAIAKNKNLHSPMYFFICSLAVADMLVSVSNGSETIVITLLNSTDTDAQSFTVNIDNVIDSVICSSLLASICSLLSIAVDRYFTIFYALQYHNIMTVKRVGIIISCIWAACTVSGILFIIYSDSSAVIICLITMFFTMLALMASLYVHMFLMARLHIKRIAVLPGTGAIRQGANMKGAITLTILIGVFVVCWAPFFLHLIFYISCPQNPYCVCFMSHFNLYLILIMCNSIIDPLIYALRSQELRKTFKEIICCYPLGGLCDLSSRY
T1 sequence (P33032 whole entry): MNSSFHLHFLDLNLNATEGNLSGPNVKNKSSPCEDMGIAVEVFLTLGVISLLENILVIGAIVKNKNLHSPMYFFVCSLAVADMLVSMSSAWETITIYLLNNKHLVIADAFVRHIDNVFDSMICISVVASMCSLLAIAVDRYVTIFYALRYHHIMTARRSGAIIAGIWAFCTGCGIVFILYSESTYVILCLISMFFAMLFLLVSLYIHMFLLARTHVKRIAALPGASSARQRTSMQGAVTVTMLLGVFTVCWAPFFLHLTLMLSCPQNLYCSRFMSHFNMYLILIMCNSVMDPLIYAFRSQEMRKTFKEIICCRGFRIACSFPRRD
T3 sequence (P41968 whole entry): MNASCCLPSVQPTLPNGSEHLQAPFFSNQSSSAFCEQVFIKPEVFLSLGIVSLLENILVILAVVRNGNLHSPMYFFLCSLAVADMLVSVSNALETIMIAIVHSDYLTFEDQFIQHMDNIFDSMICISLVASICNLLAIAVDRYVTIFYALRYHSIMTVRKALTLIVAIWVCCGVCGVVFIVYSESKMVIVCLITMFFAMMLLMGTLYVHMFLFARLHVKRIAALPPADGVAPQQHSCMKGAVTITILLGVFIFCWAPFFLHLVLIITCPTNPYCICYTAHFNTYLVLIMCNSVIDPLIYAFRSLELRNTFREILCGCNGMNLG
Sequence of MC1-Receptor (Q01727 whole entry): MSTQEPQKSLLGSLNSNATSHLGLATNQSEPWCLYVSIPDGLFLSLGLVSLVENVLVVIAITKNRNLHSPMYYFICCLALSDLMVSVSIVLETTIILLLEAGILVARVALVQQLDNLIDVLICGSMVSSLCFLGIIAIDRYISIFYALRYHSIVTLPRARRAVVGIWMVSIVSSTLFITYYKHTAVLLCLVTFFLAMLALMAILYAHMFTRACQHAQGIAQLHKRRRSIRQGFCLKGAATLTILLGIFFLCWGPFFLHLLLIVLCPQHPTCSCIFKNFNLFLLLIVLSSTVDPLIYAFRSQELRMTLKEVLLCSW
Sequence of MC1 (Q01726 whole entry): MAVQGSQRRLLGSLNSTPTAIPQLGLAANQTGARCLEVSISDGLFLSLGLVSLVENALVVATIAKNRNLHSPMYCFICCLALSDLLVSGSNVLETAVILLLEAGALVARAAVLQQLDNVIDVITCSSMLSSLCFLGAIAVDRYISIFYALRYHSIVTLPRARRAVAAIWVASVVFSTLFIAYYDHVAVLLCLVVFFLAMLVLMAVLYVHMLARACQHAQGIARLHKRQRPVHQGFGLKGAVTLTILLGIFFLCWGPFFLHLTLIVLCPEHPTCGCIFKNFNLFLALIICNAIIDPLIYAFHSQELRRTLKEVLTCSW

| Ki (MC3 [4]) | Ki (MC5 [5]) | Ki (MC4 [6]) | Structure (SMILES) | Influence on cAMP MC5c (MC5 [1]) | Influence on cAMP MC4c (MC4 [2]) | Influence on cAMP MC3c (MC3 [3]) | Influence on cAMP MC1c (MC1) | Ki (MC1-Receptor) |
| --- | --- | --- | --- | --- | --- | --- | --- | --- |
| – | – | – | CCOC(=O)c1cccc(C=NNC(=N)N)c1Cl.O=C(O)C(F)(F)F [1:3, N-(2-Chloro-(3-ethoxycarbonyl)-benzylideneamino)guanidine trifluoroacetate] | 0 | 7 | 0 | 0 | 3.4 µM |
| 19.7 µM | 19.7 µM | 0.6 µM | CSc1c(Cl)cccc1C=NNC(=N)N.Cl [Compound 1:1, N-(2-Methylthio-3-chlorobenzylideneamino)guanidine hydrochloride] | 1 | 13 | 2 | 1 | 0.7 µM |
